Each structure is given as a SMILES string. Entries after “also recorded” stand apart in the source; their conditions may differ.

Experimental findings from patent US7402575B2, “Methods of treating inflammation” (priority 2003, dated 2008) are described below.

What all share (format): cell-based, dog
Assay [1] has as its target T1, lysozyme c (Lzm-S) (Canis lupus familiaris, UniProt P81709).
T1 construct: Lzm-S was purified in a manner described by Grobler et al (14); from tissue
T1 sequence (P81709 1-130): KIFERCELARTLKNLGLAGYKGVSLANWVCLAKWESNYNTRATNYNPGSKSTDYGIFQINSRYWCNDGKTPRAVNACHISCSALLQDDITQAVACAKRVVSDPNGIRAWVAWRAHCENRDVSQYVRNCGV
Briefly: Inhibition of Lzm-S's myocardial depressant activity (isometric tension) in right ventricular trabecular preparation. The note with it: for Attenuation of the reduction in isometric tension, inhibitor added after Lzm-S: Lzm-S 10^−7M added before the inhibitor; for Isometric tension following pre-treatment with sugar: Lzm-S 10^−7M, sugar 10^−3M added before Lzm-S; for Inhibition of Lzm-S's depressant effect on isometric tension: inhibitor 10^−3M added before Lzm-S, paced 0.5 Hz. How it is done: In subsequent experiments, the objective was to determine whether pretreatment of Lzm-S with the proteolytic enzyme proteinase-K reduced the extent to which myocardial depression developed in the in vitro preparation (7). Proteinase-K (attached to beaded agarose; Sigma Chemical, St Louis, Mo.) was added to the pure Lzm-S preparation. The effects of proteinase-K treated and nontreated Lzm-S on isometric tension were compared between the samples. Since proteinase-K is a non-specific proteolytic enzyme, a specific competitive inhibitor of lysozyme, TAC (chitotriose) was subsequently examined to determine whether it prevented the depression in isometric tension observed in the in vitro preparation (16,17).
In one set of experiments, it was determined whether TAC prevented the reduction in tension observed with Lzm-S. A dose of 10^−3M TAC (based on preliminary experiments) was added to the organ bath before the addition of Lzm-S. Lzm-S was then added to bring the final concentrations to 10^−10M, 10^−9M, 10^−8M, and 10^−7M in sequential steps. In a related set of experiments, the effect of TAC was studied under a similar protocol in which the ventricular trabecular preparation was paced at 1 Hz instead of 0.5 Hz. The objective was to determine whether the higher frequency altered the inhibitory response of TAC. In a third set of experiments, the sequence of adding TAC and Lzm-S was reversed. Lzm-S (10^−7M) was initially added to the preparation, after which TAC at bath concentrations of 10^−6M, 10^−5M, 10^−4M, 10^−3M were sequentially added. The objective was to determine whether TAC could attenuate the effect of Lzm-S on reducing the isometric response after an initial depression in isometric tension had already been attained.
The right ventricular (RV) preparation used in this study has also been described (49,6). Briefly, mongrel dogs (3 to 10 kg) were anesthetized with pentobarbital. The hearts were removed, flushed with 50 ml of Krebs-Henseleit solution (KH), and placed in ice-cold KH bubbled with a mixture of 95% O2 and 5% CO2. Three to four thin trabeculae (<1 mm diameter) were obtained from the right ventricle and were tied at each end with 6-O silk thread. Each thin muscle was suspended in a vertical constant temperature bath (5 ml) that contained KH (in mM: NaCl, 118; KCl, 4.7; CaCl2 2.5; MgSO4, 1.2; KH2PO4, 1.4; NaHCO3, 25; and dextrose, 11). The muscle was stimulated electrically via punctate platinum bipolar electrodes with rectangular pulses (1 ms duration) at an intensity of 50% above threshold delivered at intervals of 2,000 ms. The trabeculae were stretched to optimal length.
Inhibitory activities of N-acetylglucosamine (NAG), N,N′ diacetylglucosamine (NAG-NAG: N,N′ diacetylchitobiose), and N,N′,N″,N′″ tetraacetylglucosamine (NAG-NAG-NAG-NAG: N,N′,N″,N′″-tetraacetylchitotetraose) were examined (Sigma Corp Canada, Oakville Ontario). These are structurally similar to TAC, but have a different number of NAG units (17). Two somewhat related sugars were also examined to see if there was potential for blocking the activity of lysozyme. These included D-cellotriose and N-aceytllactosamine. D-cellotriose includes three glucose residues linked by beta (1-4) glycosidic linkages, while N acetyllactosamine includes N-acetylglucosamine and galactose residues linked by beta (1-4) glycosidic linkages (12).
After baseline tension was determined, either the sugar or placebo was placed into respective organ baths. The concentration of the sugar used was 10^−3M based on the inventors' previous experiments with TAC 49), while the concentrations of lysozyme were 10^−9, 10^−8, and 10^−7M, respectively. Measurements were obtained at 5 minute intervals. The changes in isometric tension measured from baseline were compared between the treated and placebo baths. […]

The test system of assay [2] is right ventricular trabecular preparation. Briefly: Effect of the substance itself on isometric tension in right ventricular trabecular preparation. How it is done: Aliquots of the 10-30 KD plasma fraction (0.05 to 1 ml) were then added to a right ventricular (RV) trabecular preparation to test for the presence of FCS activity. The RV preparation has previously been described (6,7). Briefly, mongrel dogs (3 to 10 kg) were anesthetized with pentobarbital, and their hearts were removed. Three to four thin trabeculae (<1 mm diameter) were obtained from the right ventricle and were suspended in a vertical constant temperature bath (5 ml) that contained Krebs Henseleit (KH) solution. The muscle was stimulated electrically at 0.5 Hz. Aliquots of plasma fractions (from 0.05 to 1 ml) were added to respective organ baths at 5 minute intervals. The changes observed in the pre and septic plasma fractions were expressed relative to tensions found at baseline (i.e. prior to the addition of the sample). An increase in the depressant activity in the septic plasma fraction relative to that found in the presepsis sample was indicative of an increase in FCS.
The effect of purified Lzm-S on myocardial depression was then studied in the ventricular trabecular preparation. In initial experiments, the objective was to compare Lzm-S prepared from septic and nonseptic spleens to see if there was any difference between the two preparations. Although no differences were apparent by SDS-PAGE gel, different isoforms of the enzyme could have developed in sepsis thereby increasing its potential to cause myocardial depression. Aliquots of the septic and nonseptic preparations were added (at 5 minute intervals) to respective organ baths, and the changes in isometric tension were then compared between Lzm-S obtained from spleens of septic and nonseptic animals.
The right ventricular (RV) preparation used in this study has also been described (49,6). Briefly, mongrel dogs (3 to 10 kg) were anesthetized with pentobarbital. The hearts were removed, flushed with 50 ml of Krebs-Henseleit solution (KH), and placed in ice-cold KH bubbled with a mixture of 95% O2 and 5% CO2. […]
After baseline tension was determined, either the lectin or placebo was placed into respective organ baths. […]

Assay [3] concerns the target T1, lysozyme c (Lzm-S). Briefly: Inhibition of Lzm-S's myocardial depressant activity (isometric tension) in right ventricular trabecular preparation. The note with it: Lzm-S 10^−7M first, then inhibitor 10^−3M at 15 min intervals (Example 4).

As to `CC(=O)N[C@H]1[C@H](O[C@H]2[C@H](O)[C@@H](NC(C)=O)C(O)O[C@@H]2CO)O[C@H](CO)[C@@H](O[C@@H]2O[C@H](CO)[C@@H](O)[C@H](O)[C@H]2NC(C)=O)[C@@H]1O` (stereo partly drawn) [TAC, N,N′,N″ triacetylglucosamine], in assay [1], the “Attenuation of the reduction in isometric tension, inhibitor added after Lzm-S” value was “treatment attenuated the reduction in isometric tension; also recorded: attenuated the decrease in isometric tension as compared to when no intervention was instituted”; the “Isometric tension following pre-treatment with sugar” value is “approximately 77 % of baseline”; the “Inhibition of Lzm-S's depressant effect on isometric tension” value (from here on “Inhibition of Lzm-S's depressant effect”) is “significantly less than that found in the nontreated group”. In addition, in assay [1] (TAC 10^−3M before Lzm-S, paced 1 Hz), the “Attenuation of Lzm-S's depressant activity at higher pacing rate” value is on record as “still observed at this higher heart rate”. The “Effect of the substance by itself on isometric tension” value in assay [2] was “no effect on isometric tension; also recorded: modest depressant effect”. Also, the “Isometric tension, inhibitor added after myocardial depression had already been produced by lysozyme” value in assay [3] is listed as 55 % of baseline.

For `CC(=O)N[C@H]1[C@H](O[C@H]2[C@H](O)[C@@H](NC(C)=O)C(O)O[C@@H]2CO)O[C@H](CO)[C@@H](O)[C@@H]1O` (stereo partly drawn) [chitobiose, N,N′ diacetylglucosamine], in assay [1], the “Attenuation of the reduction in isometric tension, inhibitor added after Lzm-S” value is recorded as “attenuated the decrease in isometric tension as compared to when no intervention was instituted” and the “Isometric tension following pre-treatment with sugar” value is given as “approximately 90 % of baseline”. The “Inhibition of Lzm-S's depressant effect” value in assay [1] (listed as N,N′ diacetylchitobiose) was “completely blocked lysozyme's depressant activity”. Also, in assay [1] (listed as diacetylchitobiose), the “Inhibition of Lzm-S's depressant effect” value was “inhibited the depressant effect of Lzm-S”. Besides, the “Effect of the substance by itself on isometric tension” value in assay [2] is recorded as “modest depressant effect”. The “Isometric tension, inhibitor added after myocardial depression had already been produced by lysozyme” value in assay [3] is 65 % of baseline.
